Measurements from ChEMBL document CHEMBL5614437, “Antibacterial and Anti-Inflammatory Activity of Branched Peptides Derived from Natural Host Defense Sequences” (J Med Chem, 2024).
Each block holds one substance with its values, some of them ahead of it. Calls of active or inactive are those of the source. No cut-off for these calls is given here. Bridges are numbered along the chain shown (N, C = ends). Roman numbers before positions name the chains, in order.

Tests used:
[1] = tested on: Escherichia coli; assay: Antibacterial activity against Escherichia coli TG1 incubated for 12 hrs by microdilution method; type: functional
[2] = tested on: Klebsiella pneumoniae; assay: Antibacterial activity against Klebsiella pneumoniae ATCC43816 incubated for 12 hrs by microdilution method; type: functional
[3] = tested on: Staphylococcus aureus; assay: Antibacterial activity against Staphylococcus aureus USA300 incubated for 12 hrs by microdilution method; type: functional
[4] = tested on: Erythrocyte; assay: Hemolytic activity in human RBC assessed as hemolysis at […] incubated for 2 hrs by absorbance based plate reader analysis; type: toxicity, cell-based
[5] = tested on: Enterococcus faecalis; assay: Antibacterial activity against Enterococcus faecalis 51299 incubated for 12 hrs by microdilution method; type: functional
[6] = tested on: Pseudomonas aeruginosa; assay: Antibacterial activity against Pseudomonas aeruginosa ATCC 27853 incubated for 12 hrs by microdilution method; type: functional
[7] = tested on: Klebsiella pneumoniae; assay: Antibacterial activity against colistin-resistant Klebsiella pneumoniae incubated for 12 hrs by microdilution method; type: functional
[8] = tested on: Escherichia coli; assay: Antibacterial activity against Escherichia coli clinical isolate LC711/14 incubated for 12 hrs by microdilution method; type: functional
[9] = tested on: Cell membrane; assay: Induction of cytoplasmic membrane permeabilization in Escherichia coli TG1 assessed as increase in fluorescence at MIC measured after 40 to 50 mins by PI/Sytox green dye based analysis; conditions: time 40-50 min
[10] = tested on: Klebsiella pneumoniae; assay: Antibiofilm activity against Klebsiella pneumoniae ATCC43816 assessed as inhibition of biofilm formation incubated for 24 hrs by absorbance based analysis; type: functional
[11] = tested on: Cell membrane; assay: Induction of cytoplasmic membrane permeabilization in Escherichia coli TG1 assessed as increase in fluorescence incubated for 100 to 120 mins by PI/Sytox green dye based analysis; conditions: dose 1.5-3 µM, time 100-120 min
[12] = tested on: Klebsiella pneumoniae; assay: Antibiofilm activity against 24 hrs preformed biofilm in Klebsiella pneumoniae ATCC43816 assessed as reduction in preformed biofilm incubated for 14 hrs by absorbance based analysis; type: functional
[13] = tested on: Cell membrane; assay: Induction of cytoplasmic membrane permeabilization in Escherichia coli TG1 assessed as increase in fluorescence at 2 times of MIC measured after 10 mins by PI/Sytox green dye based analysis; type: cell membranes
[14] = tested on: Cell membrane; assay: Induction of cytoplasmic membrane permeabilization in Escherichia coli TG1 assessed as enlargement of bacterial cells at 2 times of MIC measured after 30 to 60 mins by SEM analysis; type: cell membranes; conditions: time 30-60 min
[15] = Stability of compound in human serum at 180 uM measured after 24 hrs by HPLC-MS analysis; type: ADME, cell-free
[16] = tested on: RAW264.7; assay: Cytotoxicity against mouse RAW264.7 cells assessed as cell killing at 200 uM incubated for 4 to 24 hrs by crystal violet staining based analysis relative to control; type: toxicity; conditions: raw264.7, 200 µM, time 4-24 hrs
[17] = Stability of compound in human serum at 180 uM measured after 4 hrs by HPLC-MS analysis; type: ADME, cell-free
[18] = tested on: Lipopolysaccharide (LPS); assay: Binding affinity to biotin-tagged LPS (unknown origin) preincubated for 30 mins followed by compound addition and 30 mins of incubation with streptavidin-POD by ELISA based microplate spectrophotometer; type: subcellular; conditions: dose 1-10 µg/ml
[19] = tested on: Escherichia coli; assay: Antibiofilm activity against Escherichia coli TG1 assessed as inhibition of biofilm formation incubated for 24 hrs by absorbance based analysis; type: functional
[20] = tested on: Erythrocyte; assay: Hemolytic activity in human RBC assessed as hemolysis at 10 times of MIC incubated for 2 hrs by absorbance based plate reader analysis; type: toxicity, cell-based
[21] = tested on: Cell membrane; assay: Induction of cytoplasmic membrane permeabilization in Escherichia coli TG1 assessed as wrinkling of membrane surface at 2 times of MIC measured after 30 to 60 mins by SEM analysis; conditions: time 30-60 min
[22] = tested on: Cell membrane; assay: Induction of cytoplasmic membrane permeabilization in Escherichia coli TG1 assessed as loss of surface smoothness at 2 times of MIC measured after 30 to 60 mins by SEM analysis; conditions: time 30-60 min
[23] = tested on: Escherichia coli; assay: Antibiofilm activity against 24 hrs preformed biofilm in Escherichia coli TG1 assessed as reduction in preformed biofilm incubated for 14 hrs by absorbance based analysis; type: functional

Substance: I: H-INLKAIAALAKKLLKK-NH2 / II: H-INLKAIAALAKKLLK / III: H-INLKAIAALAKKLL / IV: H-INLKAIAALAKKLL (amide I:15-IV:C, I:16-II:C, II:15-III:C)
MIC [1]: 12.5 µM

Substance: I: H-KLLKRIKTLLKK-NH2 / II: H-KLLKRIKTLLK / III: H-KLLKRIKTLL / IV: H-KLLKRIKTLL (amide I:11-IV:C, I:12-II:C, II:11-III:C)
MIC [2]: 6 µM | MIC [1]: 6 µM | MIC [3]: 3 µM | Activity [4]: Toxic | MIC [5]: 25 µM | MIC [6]: 6 µM | MIC [7]: 12.5 µM | MIC [8]: 6 µM

Substance: I: H-LLKKVLKAAAKKK-NH2 / II: H-LLKKVLKAAAKK / III: H-LLKKVLKAAAK / IV: H-LLKKVLKAAAK (amide I:12-IV:C, I:13-II:C, II:12-III:C)
MIC [2]: 12.5 µM | Activity [9]: Active | IC20 [10]: > 50 µM | Activity [11]: Dose-Dependent Effect | MBIC80 [12]: 50 µM | MIC [1]: 1.5 µM | Activity [13]: Active | MIC [3]: > 25 µM | Activity [14]: Active | Stability [15]: Stable | MIC [5]: > 25 µM | MIC [6]: 6 µM | Activity [16]: 100% | MIC [7]: > 25 µM | Stability [17]: Stable | MIC [8]: 6 µM | Activity [18]: Dose-Dependent Effect | IC20 [19]: 6 µM | Activity [20]: Non-Toxic | Activity [21]: Active | Activity [22]: Active | MBIC80 [23]: 50 µM

Substance: I: H-LSAARSLAIGRRKK-NH2 / II: H-LSAARSLAIGRRK / III: H-LSAARSLAIGRR / IV: H-LSAARSLAIGRR (amide I:13-IV:C, I:14-II:C, II:13-III:C)
MIC [1]: 12.5 µM

Other lines, results leading:

MIC [1]: 12.5 µM
Substance: I: H-GIIDIAKKLFESWKK-NH2 / II: H-GIIDIAKKLFESWK / III: H-GIIDIAKKLFESW / IV: H-GIIDIAKKLFESW (amide I:14-IV:C, I:15-II:C, II:14-III:C)

MIC [1]: 12.5 µM
Substance: I: H-KLLKFIKTLLKK-NH2 / II: H-KLLKFIKTLLK / III: H-KLLKFIKTLL / IV: H-KLLKFIKTLL (amide I:11-IV:C, I:12-II:C, II:11-III:C)

MIC [1]: 12.5 µM
Substance: I: H-KRLWHKVGPFKK-NH2 / II: H-KRLWHKVGPFK / III: H-KRLWHKVGPF / IV: H-KRLWHKVGPF (amide I:11-IV:C, I:12-II:C, II:11-III:C)

MIC [1]: 12.5 µM
Substance: I: H-LSAAHRLAIGRRKK-NH2 / II: H-LSAAHRLAIGRRK / III: H-LSAAHRLAIGRR / IV: H-LSAAHRLAIGRR (amide I:13-IV:C, I:14-II:C, II:13-III:C)

MIC [1]: 25 µM
Substance: I: H-LSAAHSLAIGRRKK-NH2 / II: H-LSAAHSLAIGRRK / III: H-LSAAHSLAIGRR / IV: H-LSAAHSLAIGRR (amide I:13-IV:C, I:14-II:C, II:13-III:C)
